{"source": "patent US20210401929A1", "about": "(Northeast Normal University, priority 2020, published 2021)", "test_system": "lung inflammation mice model", "assay": "LPS lung inflammation mice model, inflammatory factor mRNA in lung by real-time PCR", "type": "in vivo", "conditions": "intranasal, peptide alone without LPS"}
{"smiles": "N=C(N)NCCC[C@H](NC(=O)[C@H](CCCNC(=N)N)NC(=O)[C@H](CCCNC(=N)N)NC(=O)[C@H](CCC(N)=O)NC(=O)[C@H](CCCNC(=N)N)NC(=O)[C@H](CCCNC(=N)N)NC(=O)[C@H](CCCCN)NC(=O)[C@H](CCCCN)NC(=O)[C@H](CCCNC(=N)N)NC(=O)CNC(=O)[C@@H](N)Cc1ccc(O)cc1)C(=O)O", "note": "[TAT]", "values": [{"measurement": "inflammation in the lungs of mice treated with peptide alone (inflammatory factor mRNA)", "result": "do not cause inflammation"}]}
